Earlier results, collected in patent US20120263802A1 (priority 2003, published 2012).

Columns and labels:
[1] = system: VEGF RTK
[2] = system: range of models; conditions: once-daily oral administration; Wedge et al, Proc. Am. Assoc. Canc. Res. 2001; 42: abstract 3126

In the case of COc1cc2c(Nc3ccc(Br)cc3F)ncnc2cc1OCC1CCN(C)CC1 [ZD6474, 4-(4-bromo-2-fluoroanilino)-6-methoxy-7-(1-methylpiperidin-4-ylmethoxy)quinazoline], the “inhibition of VEGF RTK” value [1] is listed as “potent inhibitor” and the anti-tumour activity [2] is listed as “broad-spectrum anti-tumour activity”.
